Common to all, as to assay type: cell-based
Assay [1] has as its target T1, rat Nav1.2 (rNav1.2) (Rattus norvegicus, UniProt P04775).
T1 construct: expressed in transfected cells
Kind of assay: rNav1.2 slow inactivation block, manual patchclamp. To be noted: HEK 293F cells stably expressing rNav1.2. The text has this:
(§1) The generation of HEK 293F cell lines stably expressing human Nav1.7 (h Nav1.7), human Nav1.5 (hNav1.5) and rat Nav1.2 (r Nav1.2) was achieved by subcloning SCN9A, SCN5A, and SCN2A genes into inducible expression vectors followed by transfection into target cells using standard techniques. In the case of h Nav1.7, an expression vector encoding the human Navβ1 auxiliary subunit gene, SCN1B, was co-transfected with the expression vector bearing the SCN9A gene. Clones were selected using appropriate selection agents (0.3 mg/mL Zeocin and 0.8 mg/mL Geneticin) and maintained in Dulbecco's Modified Eagle medium, 10% fetal bovine serum, 1% non-essential amino acids to ˜80% confluence at 37° C. in a humidified incubator with 95% atmosphere and 5% CO2.
(§2) On the day of each experiment, cells that were grown to 80% confluence in a T75 flask were harvested for use on PatchXpress (Molecular Devices, CA, USA). Following a recovery period at 37° C. in a humidified incubator with 95% atmosphere and 5% CO2 in Dulbecco's Modified Eagle Medium, the media was replaced with an external recording solution containing (in mM): 90 TEACl, 50 NaCl, 1.8 CaCl2, 1 MgCl2, 10 HEPES, 10 glucose, adjusted to pH 7.4 with TEAOH and 300 mOsm with sucrose. The internal recording solution contained (in mM): 129 CsF, 2 MgCl2, 11 EGTA, 10 HEPES, 6 NaCl, 3 Na2ATP adjusted to pH 7.2 with CsOH and 280 mOsm with sucrose. The automated liquid handling facility of PatchXpress dispensed cells and added compound. Modulation of Nav1.7 channels by compounds was assessed by promoting the channels into the inactivated state using a conditioning voltage pulse of variable amplitude, followed by a brief hyperpolarizing pulse with a subsequent depolarized voltage step to measure the current amplitude in the presence and absence of compound.
(§3) In some cases, the potency of compounds was measured using either the Patchliner automated patch clamp platform (Nanion) or manual patch clamp techniques. Both approaches allowed the compounds to be characterized based upon the ability of a compound to modulate use- and/or state-dependence across human Nav1.7 (hNav1.7), human Nav1.5 (hNav1.5) and rat Nav1.2 (rNav1.2). The potency data is tabulated in Table 2 and is represented by six data fields. Three of the six fields represent potency data measured with the Patchliner automated platform under varying use- and state-dependent electrophysiology protocols similar to the PatchXpress protocols detailed above. For example, the second data column describes the potency of compounds in their ability to block 50% of Nav1.7 channels when the channel is repetitively activated by depolarizing voltage potentials to induce slow inactivation in approximately 50% of channels (Table 2: h Nav1.7: IC50 Slow Inactivation Block, Automated Patchclamp). The next three data fields describe the data generated from manual patchclamp electrophysiology measurements using similar methods to those employed for automated patchclamp studies.

The target of assay [2] is T2, human Nav1.7 (hNav1.7) (Homo sapiens, UniProt Q15858).
T2 construct: expressed in transfected cells
As to the kind of experiment: hNav1.7 slow inactivation block, automated patchclamp. To be noted: HEK 293F cells stably expressing hNav1.7, slow inactivation induced in approximately 50% of channels.
Source text: as §1, §2, §3

Assay [3] deals with T1, rat Nav1.2 (rNav1.2). Kind of assay: rNav1.2 slow inactivation block, automated patchclamp. Conditions: HEK 293F cells stably expressing rNav1.2.
Source text: as §1, §2, §3

Assay [4] deals with T2, human Nav1.7 (hNav1.7). Kind of assay: hNav1.7 slow inactivation block, manual patchclamp. To be noted: HEK 293F cells stably expressing hNav1.7, slow inactivation induced in approximately 50% of channels.
Source text: as §1, §2, §3

Assay [5] has as its target T3, human Nav1.5 (hNav1.5) (Homo sapiens, UniProt Q14524).
T3 construct: expressed in transfected cells
As to the kind of experiment: hNav1.5 slow inactivation block, manual patchclamp. Conditions: HEK 293F cells stably expressing hNav1.5.
Source text: as §1, with “CO2. […]” for “CO2.”
as §2, §3

Assay [6] concerns the target T3, human Nav1.5 (hNav1.5). As to the kind of experiment: hNav1.5 slow inactivation block, automated patchclamp. To be noted: HEK 293F cells stably expressing hNav1.5.
Source text: as §1
Inhibition of the TTX-resistant Nav1.5 sodium channel, a key cardiac ion channel, can have profound effects on the duration and amplitude of the cardiac action potential and can result in arrhythmias and other heart malfunctions. To assess the potential cardiac liability of compounds at an early stage in the drug discovery process, a Nav1.5 sodium channel screening assay can be performed on Molecular Device's PatchXpress™ automated electrophysiology platform. Under voltage-clamp conditions, Nav1.5 currents can be recorded from HEK cells expressing the human Nav1.5 channel in the absence and presence of increasing concentrations of the test compound to obtain an IC50 value. The external recording solution can contain (in mM): 90 TEACl, 50 NaCl, 1.8 CaCl, 1 MgCl2, 10 HEPES, 10 glucose, adjusted to pH 7.4 with TEA-OH and to 300 mOsm with sucrose (if necessary), while the internal patch pipette solution contained (in mM): 129 CsF, 2 MgCl2, 11 EGTA, 10 HEPES, 3 Na2ATP adjusted to pH 7.2 with CsOH and to 290 mOsm with sucrose (if necessary). Nav1.5 channel currents can be evoked using a cardiac action potential waveform at 1 Hz, digitized at 31.25 kHz and low-pass filtered at 12 kHz.
as §2
In some cases, the potency of compounds was measured using either the Patchliner automated patch clamp platform (Nanion) or manual patch clamp techniques. Both approaches allowed the compounds to be characterized based upon the ability of a compound to modulate use- and/or state-dependence across human Nav1.7 (hNav1.7), human Nav1.5 (hNav1.5) and rat Nav1.2 (rNav1.2). The potency data is tabulated in Table 2 and is represented by six data fields. Three of the six fields represent potency data measured with the Patchliner automated platform under varying use- and state-dependent electrophysiology protocols similar to the PatchXpress protocols detailed above. […]

From patent US11236078B2, “Heterocyclic inhibitors of the sodium channel” (priority 2014, dated 2022) come the findings set out here.

T3 sequence (Q14524 whole entry): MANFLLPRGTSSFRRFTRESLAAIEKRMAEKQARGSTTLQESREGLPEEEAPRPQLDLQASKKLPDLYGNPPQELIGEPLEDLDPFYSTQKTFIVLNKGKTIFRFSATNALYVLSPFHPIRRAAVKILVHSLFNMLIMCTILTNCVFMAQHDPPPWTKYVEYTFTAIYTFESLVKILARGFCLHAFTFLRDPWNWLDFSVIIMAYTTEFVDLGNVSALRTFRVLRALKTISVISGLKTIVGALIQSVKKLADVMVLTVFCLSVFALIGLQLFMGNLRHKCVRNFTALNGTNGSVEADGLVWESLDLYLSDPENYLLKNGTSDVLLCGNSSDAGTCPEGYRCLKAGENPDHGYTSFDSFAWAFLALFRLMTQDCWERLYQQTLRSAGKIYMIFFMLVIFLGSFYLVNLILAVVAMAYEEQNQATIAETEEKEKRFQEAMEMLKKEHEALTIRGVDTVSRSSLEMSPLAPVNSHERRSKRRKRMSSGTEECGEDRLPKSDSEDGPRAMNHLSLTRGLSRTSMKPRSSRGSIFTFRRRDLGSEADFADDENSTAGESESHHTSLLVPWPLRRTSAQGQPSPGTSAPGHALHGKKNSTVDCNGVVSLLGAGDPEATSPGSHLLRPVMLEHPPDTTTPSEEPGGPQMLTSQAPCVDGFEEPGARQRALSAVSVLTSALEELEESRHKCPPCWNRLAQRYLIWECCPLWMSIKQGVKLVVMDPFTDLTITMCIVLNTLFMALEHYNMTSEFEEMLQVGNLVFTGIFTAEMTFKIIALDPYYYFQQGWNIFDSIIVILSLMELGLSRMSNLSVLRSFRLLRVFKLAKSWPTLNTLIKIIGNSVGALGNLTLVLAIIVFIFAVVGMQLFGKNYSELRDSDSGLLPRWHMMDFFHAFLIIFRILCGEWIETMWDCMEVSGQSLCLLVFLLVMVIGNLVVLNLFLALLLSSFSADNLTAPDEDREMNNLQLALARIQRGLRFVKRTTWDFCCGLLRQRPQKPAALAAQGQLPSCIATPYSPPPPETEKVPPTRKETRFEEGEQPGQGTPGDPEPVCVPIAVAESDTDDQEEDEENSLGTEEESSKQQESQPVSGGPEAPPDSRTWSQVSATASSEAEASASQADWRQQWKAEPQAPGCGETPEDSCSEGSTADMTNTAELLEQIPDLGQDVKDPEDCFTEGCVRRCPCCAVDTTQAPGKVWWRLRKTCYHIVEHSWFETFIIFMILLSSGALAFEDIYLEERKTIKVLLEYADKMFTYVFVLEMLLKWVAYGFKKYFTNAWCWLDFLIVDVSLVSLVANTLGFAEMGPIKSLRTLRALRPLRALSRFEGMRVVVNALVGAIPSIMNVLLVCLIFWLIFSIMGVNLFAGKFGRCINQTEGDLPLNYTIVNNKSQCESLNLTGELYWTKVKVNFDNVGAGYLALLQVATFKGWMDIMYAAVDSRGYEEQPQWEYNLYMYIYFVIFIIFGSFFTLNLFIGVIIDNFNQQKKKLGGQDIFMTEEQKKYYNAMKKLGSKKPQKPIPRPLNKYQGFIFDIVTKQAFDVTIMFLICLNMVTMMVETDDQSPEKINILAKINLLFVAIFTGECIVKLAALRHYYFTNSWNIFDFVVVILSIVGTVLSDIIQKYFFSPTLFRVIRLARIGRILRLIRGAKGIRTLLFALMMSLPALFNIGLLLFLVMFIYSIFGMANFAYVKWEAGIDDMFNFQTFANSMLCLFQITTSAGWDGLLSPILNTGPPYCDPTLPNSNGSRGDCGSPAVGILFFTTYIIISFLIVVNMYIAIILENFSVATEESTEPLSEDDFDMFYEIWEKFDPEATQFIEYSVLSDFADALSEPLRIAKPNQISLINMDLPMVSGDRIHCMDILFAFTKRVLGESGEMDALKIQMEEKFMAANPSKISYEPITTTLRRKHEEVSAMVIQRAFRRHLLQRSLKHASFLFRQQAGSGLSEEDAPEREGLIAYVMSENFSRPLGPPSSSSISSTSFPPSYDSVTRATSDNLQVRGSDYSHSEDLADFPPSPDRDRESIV
T2 sequence (Q15858 whole entry): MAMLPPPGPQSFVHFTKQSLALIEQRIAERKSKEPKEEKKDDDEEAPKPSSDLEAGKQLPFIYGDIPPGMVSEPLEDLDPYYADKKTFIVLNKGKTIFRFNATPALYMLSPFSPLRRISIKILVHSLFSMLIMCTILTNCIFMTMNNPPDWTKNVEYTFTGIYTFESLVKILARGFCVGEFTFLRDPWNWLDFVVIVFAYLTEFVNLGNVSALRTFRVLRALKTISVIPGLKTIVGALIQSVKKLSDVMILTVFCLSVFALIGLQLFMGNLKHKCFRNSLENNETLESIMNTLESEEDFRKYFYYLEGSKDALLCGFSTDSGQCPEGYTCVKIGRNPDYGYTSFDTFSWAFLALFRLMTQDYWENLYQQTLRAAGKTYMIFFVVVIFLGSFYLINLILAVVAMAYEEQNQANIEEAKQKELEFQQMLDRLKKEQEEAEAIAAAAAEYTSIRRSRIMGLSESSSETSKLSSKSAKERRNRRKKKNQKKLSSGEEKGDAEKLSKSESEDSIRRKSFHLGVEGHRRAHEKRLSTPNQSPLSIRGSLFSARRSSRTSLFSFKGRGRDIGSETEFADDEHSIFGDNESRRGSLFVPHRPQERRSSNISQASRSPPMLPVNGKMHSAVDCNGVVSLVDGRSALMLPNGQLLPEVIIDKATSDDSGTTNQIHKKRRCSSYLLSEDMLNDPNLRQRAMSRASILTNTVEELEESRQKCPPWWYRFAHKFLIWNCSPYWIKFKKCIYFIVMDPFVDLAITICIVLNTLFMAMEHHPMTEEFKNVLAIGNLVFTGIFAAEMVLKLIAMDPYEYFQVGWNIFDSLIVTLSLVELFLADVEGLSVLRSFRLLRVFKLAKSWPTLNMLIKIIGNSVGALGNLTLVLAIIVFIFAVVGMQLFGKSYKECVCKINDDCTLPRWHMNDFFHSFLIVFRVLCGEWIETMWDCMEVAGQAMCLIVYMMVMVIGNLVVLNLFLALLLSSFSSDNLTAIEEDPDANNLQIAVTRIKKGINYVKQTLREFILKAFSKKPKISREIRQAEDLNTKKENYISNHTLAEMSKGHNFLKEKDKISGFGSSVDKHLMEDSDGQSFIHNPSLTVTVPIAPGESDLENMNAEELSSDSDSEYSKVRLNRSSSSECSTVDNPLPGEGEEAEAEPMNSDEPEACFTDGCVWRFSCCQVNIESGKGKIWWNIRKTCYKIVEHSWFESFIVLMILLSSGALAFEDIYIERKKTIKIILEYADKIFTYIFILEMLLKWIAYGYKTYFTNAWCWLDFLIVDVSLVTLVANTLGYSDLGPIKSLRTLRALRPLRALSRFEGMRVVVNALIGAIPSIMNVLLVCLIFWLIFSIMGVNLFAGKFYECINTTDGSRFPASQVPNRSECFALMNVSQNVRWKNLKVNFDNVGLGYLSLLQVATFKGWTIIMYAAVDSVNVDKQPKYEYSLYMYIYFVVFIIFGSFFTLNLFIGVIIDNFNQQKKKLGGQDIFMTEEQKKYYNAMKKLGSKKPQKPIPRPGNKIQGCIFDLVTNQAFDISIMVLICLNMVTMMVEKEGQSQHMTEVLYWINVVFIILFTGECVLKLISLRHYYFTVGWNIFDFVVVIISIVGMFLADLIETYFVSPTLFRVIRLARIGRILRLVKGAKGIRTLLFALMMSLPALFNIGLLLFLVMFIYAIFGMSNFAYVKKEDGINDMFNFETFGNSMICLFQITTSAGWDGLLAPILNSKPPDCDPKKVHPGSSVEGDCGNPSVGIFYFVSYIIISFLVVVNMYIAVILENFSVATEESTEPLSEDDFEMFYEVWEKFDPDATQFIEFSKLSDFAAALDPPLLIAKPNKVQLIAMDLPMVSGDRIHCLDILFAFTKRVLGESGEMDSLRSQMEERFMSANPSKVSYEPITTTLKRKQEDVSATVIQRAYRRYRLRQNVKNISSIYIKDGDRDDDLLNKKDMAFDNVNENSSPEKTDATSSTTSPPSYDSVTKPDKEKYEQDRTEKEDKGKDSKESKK
T2 sequence (Q07699 19-218 partner): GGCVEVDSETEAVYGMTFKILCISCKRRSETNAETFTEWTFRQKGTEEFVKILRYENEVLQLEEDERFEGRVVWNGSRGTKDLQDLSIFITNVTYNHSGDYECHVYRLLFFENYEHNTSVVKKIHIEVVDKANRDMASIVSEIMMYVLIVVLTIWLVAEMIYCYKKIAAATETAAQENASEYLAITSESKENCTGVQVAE

For the molecule `O=C(NCc1cc(F)c(Oc2cc(C(F)(F)F)cc(C(F)(F)F)c2)cc1F)[C@@H]1CCCN1` [Compound 4, (2S)-N-({4-[3,5-bis(trifluoromethyl)phenoxy]-2,5-difluorophenyl}methyl)pyrrolidine-2-carboxamide], the 50% inhibitory concentration (IC50) at rat Nav1.2 (rNav1.2) [1] came to 146 nM; against human Nav1.7 (hNav1.7) [2] it was 977 nM; at rat Nav1.2 (rNav1.2) [3], 1870 nM; on human Nav1.7 (hNav1.7) [4], 217 nM; at human Nav1.5 (hNav1.5) [5] it was 116 nM.
Take `O=S(=O)(Nc1ncns1)c1cc(F)c(Oc2cc(C(F)(F)F)cc(C(F)(F)F)c2)cc1F` [Compound 5, 4-[3,5-bis(trifluoromethyl)phenoxy]-2,5-difluoro-N-(1,2,4-thiadiazol-5-yl)benzene-1-sulfonamide]: the IC50 against rat Nav1.2 (rNav1.2) [1] was determined as 19400 nM; against human Nav1.7 (hNav1.7) [2], 7250 nM; against human Nav1.7 (hNav1.7) [4] it was 393 nM; against human Nav1.5 (hNav1.5) [5] it was 16600 nM.
With `O=C(NCc1cc(F)c(Oc2cc(C(F)(F)F)cc(C(F)(F)F)c2)cc1F)c1ncns1` [Compound 17, N-({4-[3,5-bis(trifluoromethyl)phenoxy]-2,5-difluorophenyl}methyl)-1,2,4-thiadiazole-5-carboxamide], the IC50 at rat Nav1.2 (rNav1.2) [1] is 479 nM; against human Nav1.7 (hNav1.7) [2], 8430 nM; against rat Nav1.2 (rNav1.2) [3] it was 18700 nM; on human Nav1.7 (hNav1.7) [4], 470 nM; against human Nav1.5 (hNav1.5) [5], roughly 2500 nM.
For `O=S(=O)(Nc1ncns1)c1cc(F)c(Oc2cc(F)cc(Cl)c2)cc1F` [Compound 29, 4-(3-chloro-5-fluorophenoxy)-2,5-difluoro-N-(1,2,4-thiadiazol-5-yl)benzene-1-sulfonamide] the same measures were greater than 32000 nM, 14600 nM, greater than 32000 nM, 678 nM and roughly 7570 nM.
For `O=S(=O)(Nc1ncns1)c1cc(F)c(Oc2cc(C3CNC3)cc(C(F)(F)F)c2)cc1F` [Compound 31, 4-(3-(azetidin-3-yl)-5-(trifluoromethyl)phenoxy)-2,5-difluoro-N-(1,2,4-thiadiazol-5-yl)benzenesulfonamide] the same measures were 387 nM, 750 nM, roughly 1220 nM, 286 nM and roughly 1460 nM.
Consider `O=S(=O)(Nc1ncns1)c1cc(F)c(Oc2cc(Br)cc(C(F)(F)F)c2)cc1F` [Compound 33, 4-[3-bromo-5-(trifluoromethyl)phenoxy]-2,5-difluoro-N-(1,2,4-thiadiazol-5-yl)benzene-1-sulfonamide], for which the IC50 was roughly 4910 nM at rat Nav1.2 (rNav1.2) [1], roughly 10000 nM at human Nav1.7 (hNav1.7) [2], 118 nM on human Nav1.7 (hNav1.7) [4] and roughly 4010 nM against human Nav1.5 (hNav1.5) [5].
Consider `COc1cc(Oc2cc(F)c(S(=O)(=O)Nc3ncns3)cc2F)cc(C(F)(F)F)c1` [Compound 34, 2,5-difluoro-4-[3-methoxy-5-(trifluoromethyl)phenoxy]-N-(1,2,4-thiadiazol-5-yl)benzene-1-sulfonamide], for which the IC50 at rat Nav1.2 (rNav1.2) [1] is roughly 2740 nM; at human Nav1.7 (hNav1.7) [2], roughly 6250 nM; against human Nav1.7 (hNav1.7) [4], 186 nM; against human Nav1.5 (hNav1.5) [5] it was 1600 nM.
`O=S(=O)(Nc1ncns1)c1cc(F)c(Oc2cc(Cl)cc(C(F)(F)F)c2)cc1F` [Compound 36, 4-[3-chloro-5-(trifluoromethyl)phenoxy]-2,5-difluoro-N-(1,2,4-thiadiazol-5-yl)benzene-1-sulfonamide]: the IC50 was greater than 10000 nM against rat Nav1.2 (rNav1.2) [1], roughly 11900 nM on human Nav1.7 (hNav1.7) [2], 256 nM against human Nav1.7 (hNav1.7) [4] and roughly 4960 nM against human Nav1.5 (hNav1.5) [5].
With `CCCOc1cc(Oc2cc(F)c(S(=O)(=O)Nc3ncns3)cc2F)cc(C(F)(F)F)c1` [Compound 37, 2,5-difluoro-4-[3-propoxy-5-(trifluoromethyl)phenoxy]-N-(1,2,4-thiadiazol-5-yl)benzene-1-sulfonamide], the IC50 against rat Nav1.2 (rNav1.2) [1] is greater than 10000 nM; at human Nav1.7 (hNav1.7) [2], roughly 17600 nM; on human Nav1.7 (hNav1.7) [4], roughly 413 nM; against human Nav1.5 (hNav1.5) [5], 7210 nM.
As to `COc1cc(Oc2cc(F)c(S(=O)(=O)Nc3nc(C)ns3)cc2F)cc(C(F)(F)F)c1` [Compound 40, 2,5-difluoro-4-[3-methoxy-5-(trifluoromethyl)phenoxy]-N-(3-methyl-1,2,4-thiadiazol-5-yl)benzene-1-sulfonamide], the IC50 on human Nav1.7 (hNav1.7) [2] is greater than 32000 nM; at human Nav1.7 (hNav1.7) [4] it was greater than 3200 nM; against human Nav1.5 (hNav1.5) [6], greater than 32000 nM.
`COc1cc(Oc2cc(F)c(S(=O)(=O)Nc3nc(Cc4ccccc4)ns3)cc2F)cc(C(F)(F)F)c1` [Compound 41, N-(3-benzyl-1,2,4-thiadiazol-5-yl)-2,5-difluoro-4-[3-methoxy-5-(trifluoromethyl)phenoxy]benzene-1-sulfonamide]: the IC50 against human Nav1.7 (hNav1.7) [2] was greater than 32000 nM; at human Nav1.7 (hNav1.7) [4], greater than 3200 nM; against human Nav1.5 (hNav1.5) [6] it was greater than 32000 nM.
In the case of `COc1cc(Oc2cc(F)c(S(=O)(=O)Nc3nc(CN4CCOCC4)ns3)cc2F)cc(C(F)(F)F)c1` [Compound 45, 2,5-difluoro-4-[3-methoxy-5-(trifluoromethyl)phenoxy]-N-[3-(morpholin-4-ylmethyl)-1,2,4-thiadiazol-5-yl]benzene-1-sulfonamide], the IC50 on human Nav1.7 (hNav1.7) [2] is greater than 32000 nM; on human Nav1.7 (hNav1.7) [4], greater than 10000 nM; at human Nav1.5 (hNav1.5) [6], greater than 32000 nM.
Turning to `O=C(NCc1cccc(-c2cc(C(F)(F)F)cc(C(F)(F)F)c2)c1)C1CCCC1` [Compound 56, N-({3-[3,5-bis(trifluoromethyl)phenyl]phenyl}methyl)cyclopentanecarboxamide], the half-maximal inhibitory concentration (IC50) stood at 219 nM against rat Nav1.2 (rNav1.2) [1]; 712 nM against human Nav1.7 (hNav1.7) [2]; 5850 nM against rat Nav1.2 (rNav1.2) [3]; 173 nM at human Nav1.7 (hNav1.7) [4]; 462 nM against human Nav1.5 (hNav1.5) [5].
Take `N#Cc1cc(Oc2cc(C(F)(F)F)cc(C(F)(F)F)c2)ccc1S(=O)(=O)Nc1nncs1` [Example 43, 4-[3,5-bis(trifluoromethyl)phenoxy]-2-cyano-N-(1,3,4-thiadiazol-2-yl)benzene-1-sulfonamide]: the IC50 against human Nav1.7 (hNav1.7) [2] is greater than 32000 nM; at human Nav1.7 (hNav1.7) [4], greater than 10000 nM; at human Nav1.5 (hNav1.5) [6] it was greater than 32000 nM.
